Laboratory results from paper PMC6445171 (Journal of Enzyme Inhibition and Medicinal Chemistry, 2017).
Values after ≈ are worked out from the molar mass of the structure shown. Like-named read-outs stand apart in the source and are kept apart here.

Tests used:
physchem = details: pH 7.4, aqueous buffer
[1] = cited from earlier work

`Nc1ccc2oc(-c3ccco3)nc2c1` [Compound D1, 2-(Furan-2-yl)-1,3-benzoxazol-5-amine] gave a Solubility (physchem) of 28 µM (≈ 5.61 µg/mL).

For `CCn1c(=O)c2c(nc(/C=C/c3ccc(OC)c(OC)c3)n2C)n(CC)c1=O` [Istradefylline], the Solubility ([1]; reference antagonists) is listed as 1.5 µM (≈ 0.577 µg/mL).

For `COCCOc1ccc(N2CCN(CCn3ncc4c3nc(N)n3nc(-c5ccco5)nc43)CC2)cc1` [Preladenant], the Solubility ([1]; reference antagonist) is listed as 0.02 µM (≈ 0.0101 µg/mL).
